Data published in publication PMC8279981, “A first-in-human, phase 1 study of the NEDD8 activating enzyme E1 inhibitor TAS4464 in patients with advanced solid tumors” (Investigational New Drugs, 2021).

Tested on: patients with advanced or metastatic solid tumors
Assay: Phase 1 study: treatment-related adverse events (NCI CTCAE v4.03)
Assay type: in vivo, human
Experimental: The highest non-severely toxic dose was derived from a dog toxicology study and was used to calculate a clinical starting dose of 10 mg/m^2, which corresponds to one-sixth of the human-equivalent dose. The maximum tolerated dose (MTD) of TAS4464 was investigated using an accelerated titration design. Initially, the starting TAS4464 dose was 10 mg/m^2 and was followed by an initial accelerated stage (i.e., weekly dosing phase) with 100% dose-step increments (level 1: 10 mg/m^2, level 2: 20 mg/m^2, level 3: 40 mg/m^2, and level 4: 56 mg/m^2). The 100% dose-step increments continued until the occurrence of a grade ≥ 2 drug-related toxicity within Cycle 1; dose-limiting toxicity (DLT) within Cycle 1; the next dose level reaching 60 mg/m^2; or any safety concerns. Thereafter, 40% increments were employed in the standard stage.
In the standard stage, three to six patients were to be enrolled, and the dose was escalated in 40% increments if none of the first three patients experienced a DLT. If one patient experienced a DLT, three additional patients were to be enrolled at the same dose level. If two of three or two of six patients experienced a DLT, the dose escalation was to be ceased. […] Additionally, DLT criteria regarding abnormal liver function and discontinuation criteria for study drug administration were added. The TAS4464 dose level for Day 1 of Cycle 1 was then set to 40 mg/m^2 (level 3).
Therefore, TAS4464 was administered every 7 days by 1-h intravenous infusion (± 10 min) at the dose assigned to each level. Study treatment was repeated every 28 days. The dosing regimens of each cohort are summarized in Supplementary Fig. 1.
Secondary objectives included assessment of AEs, treatment-related AEs, objective response rate (ORR), disease control rate (DCR), progression-free survival (PFS), and PK, pharmacodynamic, and pharmacogenomic (PGx) parameters with TAS4464 administration. The National Cancer Institute Common Terminology Criteria for Adverse Events (NCI CTCAE) v4.03 [17] was used to assess the severity of AEs. […] RECIST v1.1 [16] was used to determine clinical response, and all computed tomography images were assessed by the physician at the study site after completion of the imaging procedure. The ORR was defined as the percentage of patients with the best overall response of complete response (CR) or partial response (PR). The DCR was the percentage of patients with a best overall response of CR, PR, stable disease (SD), or non-CR/non-progressive disease (PD). PFS was defined as the time from the date of enrollment until the date of investigator-assessed radiological disease progression or death due to any cause, whichever occurred first.

[1] = All-grade, weekly dosing Level 1 (10 mg/m^2), n = 1
[2] = All-grade, weekly dosing Level 2 (20 mg/m^2), n = 1
[3] = All-grade, weekly dosing Level 3 (40 mg/m^2), n = 3
[4] = All-grade, weekly dosing Level 4 (56 mg/m^2), n = 5
[5] = All-grade, weekly dosing with lead-in Level 3 (20 → 40 mg/m^2), n = 3
[6] = All-grade, weekly dosing with lead-in Level 4 (20 → 56 mg/m^2), n = 3

SMILES: CCOc1cccc(F)c1C#Cc1cn([C@@H]2O[C@H](CNS(N)(=O)=O)[C@@H](O)[C@H]2O)c2ncnc(N)c12 [TAS4464]
- Grade ≥ 2 abnormal liver function tests (10 or 20 mg/m^2 weekly doses): did not occur
- Grade ≥ 2 abnormal liver function tests (40 and 56 mg/m^2 weekly doses): five patients
- AEs leading to dose reduction (ALT increased, weekly dosing level 4): one patient each
- AEs leading to treatment discontinuation (AST and ALT increased, weekly dosing with lead-in period level 4): one patient each
- ALP increased (treatment-related adverse event) (All-grade, Total, N = 16): 7 (43.8) n (%)
- ALT increased (treatment-related adverse event) (All-grade, Total, N = 16): 11 (68.8) n (%)
- AST increased (treatment-related adverse event) (All-grade, Total, N = 16): 10 (62.5) n (%)
- Anemia (treatment-related adverse event) (All-grade, Total, N = 16): 3 (18.8) n (%)
- Blood bilirubin increased (treatment-related adverse event) (All-grade, Total, N = 16): 3 (18.8) n (%)
- Decreased appetite (treatment-related adverse event) (All-grade, Total, N = 16): 5 (31.3) n (%)
- Diarrhea (treatment-related adverse event) (All-grade, Total, N = 16): 3 (18.8) n (%)
- Fatigue (treatment-related adverse event) (All-grade, Total, N = 16): 2 (12.5) n (%)
- GGT increased (treatment-related adverse event) (All-grade, Total, N = 16): 4 (25.0) n (%)
- Hypoalbuminemia (treatment-related adverse event) (All-grade, Total, N = 16): 2 (12.5) n (%)
- Malaise (treatment-related adverse event) (All-grade, Total, N = 16): 3 (18.8) n (%)
- Nausea (treatment-related adverse event) (All-grade, Total, N = 16): 7 (43.8) n (%)
- Neuropathy peripheral (treatment-related adverse event) (All-grade, Total, N = 16): 2 (12.5) n (%)
- Pyrexia (treatment-related adverse event) (All-grade, Total, N = 16): 2 (12.5) n (%)
- Rash (treatment-related adverse event) (All-grade, Total, N = 16): 3 (18.8) n (%)
- Vomiting (treatment-related adverse event) (All-grade, Total, N = 16): 4 (25.0) n (%)
- WBC decreased (treatment-related adverse event) (All-grade, Total, N = 16): 3 (18.8) n (%)
- ALP increased (treatment-related adverse event) [1]: 0 n (%)
- ALT increased (treatment-related adverse event) [1]: 1 (100.0) n (%)
- AST increased (treatment-related adverse event) [1]: 1 (100.0) n (%)
- Anemia (treatment-related adverse event) [1]: 0 n (%)
- Blood bilirubin increased (treatment-related adverse event) [1]: 0 n (%)
- Decreased appetite (treatment-related adverse event) [1]: 0 n (%)
- Diarrhea (treatment-related adverse event) [1]: 0 n (%)
- Fatigue (treatment-related adverse event) [1]: 0 n (%)
- GGT increased (treatment-related adverse event) [1]: 0 n (%)
- Hypoalbuminemia (treatment-related adverse event) [1]: 1 (100.0) n (%)
- Malaise (treatment-related adverse event) [1]: 0 n (%)
- Nausea (treatment-related adverse event) [1]: 0 n (%)
- Neuropathy peripheral (treatment-related adverse event) [1]: 0 n (%)
- Pyrexia (treatment-related adverse event) [1]: 0 n (%)
- Rash (treatment-related adverse event) [1]: 0 n (%)
- Vomiting (treatment-related adverse event) [1]: 0 n (%)
- WBC decreased (treatment-related adverse event) [1]: 0 n (%)
- ALP increased (treatment-related adverse event) [2]: 0 n (%)
- ALT increased (treatment-related adverse event) [2]: 1 (100.0) n (%)
- AST increased (treatment-related adverse event) [2]: 0 n (%)
- Anemia (treatment-related adverse event) [2]: 0 n (%)
- Blood bilirubin increased (treatment-related adverse event) [2]: 0 n (%)
- Decreased appetite (treatment-related adverse event) [2]: 0 n (%)
- Diarrhea (treatment-related adverse event) [2]: 0 n (%)
- Fatigue (treatment-related adverse event) [2]: 0 n (%)
- GGT increased (treatment-related adverse event) [2]: 0 n (%)
- Hypoalbuminemia (treatment-related adverse event) [2]: 0 n (%)
- Malaise (treatment-related adverse event) [2]: 0 n (%)
- Nausea (treatment-related adverse event) [2]: 0 n (%)
- Neuropathy peripheral (treatment-related adverse event) [2]: 0 n (%)
- Pyrexia (treatment-related adverse event) [2]: 0 n (%)
- Rash (treatment-related adverse event) [2]: 0 n (%)
- Vomiting (treatment-related adverse event) [2]: 0 n (%)
- WBC decreased (treatment-related adverse event) [2]: 0 n (%)
- ALP increased (treatment-related adverse event) [3]: 2 (66.7) n (%)
- ALT increased (treatment-related adverse event) [3]: 1 (33.3) n (%)
- AST increased (treatment-related adverse event) [3]: 1 (33.3) n (%)
- Anemia (treatment-related adverse event) [3]: 0 n (%)
- Blood bilirubin increased (treatment-related adverse event) [3]: 1 (33.3) n (%)
- Decreased appetite (treatment-related adverse event) [3]: 2 (66.7) n (%)
- Diarrhea (treatment-related adverse event) [3]: 1 (33.3) n (%)
- Fatigue (treatment-related adverse event) [3]: 1 (33.3) n (%)
- GGT increased (treatment-related adverse event) [3]: 1 (33.3) n (%)
- Hypoalbuminemia (treatment-related adverse event) [3]: 1 (33.3) n (%)
- Malaise (treatment-related adverse event) [3]: 1 (33.3) n (%)
- Nausea (treatment-related adverse event) [3]: 2 (66.7) n (%)
- Neuropathy peripheral (treatment-related adverse event) [3]: 0 n (%)
- Pyrexia (treatment-related adverse event) [3]: 0 n (%)
- Rash (treatment-related adverse event) [3]: 0 n (%)
- Vomiting (treatment-related adverse event) [3]: 1 (33.3) n (%)
- WBC decreased (treatment-related adverse event) [3]: 1 (33.3) n (%)
- ALP increased (treatment-related adverse event) [4]: 4 (80.0) n (%)
- ALT increased (treatment-related adverse event) [4]: 5 (100.0) n (%)
- AST increased (treatment-related adverse event) [4]: 4 (80.0) n (%)
- Anemia (treatment-related adverse event) [4]: 1 (20.0) n (%)
- Blood bilirubin increased (treatment-related adverse event) [4]: 2 (40.0) n (%)
- Decreased appetite (treatment-related adverse event) [4]: 2 (40.0) n (%)
- Diarrhea (treatment-related adverse event) [4]: 2 (40.0) n (%)
- Fatigue (treatment-related adverse event) [4]: 1 (20.0) n (%)
- GGT increased (treatment-related adverse event) [4]: 3 (60.0) n (%)
- Hypoalbuminemia (treatment-related adverse event) [4]: 0 n (%)
- Malaise (treatment-related adverse event) [4]: 2 (40.0) n (%)
- Nausea (treatment-related adverse event) [4]: 4 (80.0) n (%)
- Neuropathy peripheral (treatment-related adverse event) [4]: 2 (40.0) n (%)
- Pyrexia (treatment-related adverse event) [4]: 0 n (%)
- Rash (treatment-related adverse event) [4]: 2 (40.0) n (%)
- Vomiting (treatment-related adverse event) [4]: 2 (40.0) n (%)
- WBC decreased (treatment-related adverse event) [4]: 1 (20.0) n (%)
- ALP increased (treatment-related adverse event) [5]: 0 n (%)
- ALT increased (treatment-related adverse event) [5]: 1 (33.3) n (%)
- AST increased (treatment-related adverse event) [5]: 2 (66.7) n (%)
- Anemia (treatment-related adverse event) [5]: 1 (33.3) n (%)
- Blood bilirubin increased (treatment-related adverse event) [5]: 0 n (%)
- Decreased appetite (treatment-related adverse event) [5]: 1 (33.3) n (%)
- Diarrhea (treatment-related adverse event) [5]: 0 n (%)
- Fatigue (treatment-related adverse event) [5]: 0 n (%)
- GGT increased (treatment-related adverse event) [5]: 0 n (%)
- Hypoalbuminemia (treatment-related adverse event) [5]: 0 n (%)
- Malaise (treatment-related adverse event) [5]: 0 n (%)
- Nausea (treatment-related adverse event) [5]: 1 (33.3) n (%)
- Neuropathy peripheral (treatment-related adverse event) [5]: 0 n (%)
- Pyrexia (treatment-related adverse event) [5]: 2 (66.7) n (%)
- Rash (treatment-related adverse event) [5]: 0 n (%)
- Vomiting (treatment-related adverse event) [5]: 1 (33.3) n (%)
- WBC decreased (treatment-related adverse event) [5]: 0 n (%)
- ALP increased (treatment-related adverse event) [6]: 1 (33.3) n (%)
- ALT increased (treatment-related adverse event) [6]: 2 (66.7) n (%)
- AST increased (treatment-related adverse event) [6]: 2 (66.7) n (%)
- Anemia (treatment-related adverse event) [6]: 1 (33.3) n (%)
- Blood bilirubin increased (treatment-related adverse event) [6]: 0 n (%)
- Decreased appetite (treatment-related adverse event) [6]: 0 n (%)
- Diarrhea (treatment-related adverse event) [6]: 0 n (%)
- Fatigue (treatment-related adverse event) [6]: 0 n (%)
- GGT increased (treatment-related adverse event) [6]: 0 n (%)
- Hypoalbuminemia (treatment-related adverse event) [6]: 0 n (%)
- Malaise (treatment-related adverse event) [6]: 0 n (%)
- Nausea (treatment-related adverse event) [6]: 0 n (%)
- Neuropathy peripheral (treatment-related adverse event) [6]: 0 n (%)
- Pyrexia (treatment-related adverse event) [6]: 0 n (%)
- Rash (treatment-related adverse event) [6]: 1 (33.3) n (%)
- Vomiting (treatment-related adverse event) [6]: 0 n (%)
- WBC decreased (treatment-related adverse event) [6]: 1 (33.3) n (%)
- ALP increased (treatment-related adverse event) (Grade ≥ 3, Total, N = 16): 1 (6.3) n (%)
- ALT increased (treatment-related adverse event) (Grade ≥ 3, Total, N = 16): 5 (31.3) n (%)
- AST increased (treatment-related adverse event) (Grade ≥ 3, Total, N = 16): 5 (31.3) n (%)
